For one experiment, the target named is JAK2 (Homo sapiens (Human), UniProt O60674). The experiment can be described thus: JAK2 activity inhibition assay (radioactive kinase assay / Caliper assay). The experiment is classed as biochemical. The settings on record: read-out: JAK2 Ki. The method, then: The caliper machine employs an off chip mobility shift assay to detect phosphorylated peptide substrates from kinase assays, using microfluidics technology. […] Compounds are serially diluted in DMSO then further diluted in assay buffer (25 mM HEPES, pH 7.5, 0.01% Brij-35, 0.01% Triton, 0.5 mM EGTA). 5 ul of diluted compound was added into wells first, then 10 ul of enzyme mix was added into wells, followed by 10 uL of substrate mix (peptide and ATP in 10 mM MgCl2) to start reaction. Reaction was incubated at 28° C. for 25 min and then added 25 ul stop buffer (100 mM HEPES, 0.015% Brij-35, 50 mM EDTA), followed by reading with Caliper.

A further experiment deals with TYK2 (Homo sapiens (Human), UniProt P29597). The experiment can be described thus: Tyk2 activity inhibition assay (radioactive kinase assay / Caliper assay). The experiment is classed as biochemical. The method, then: Peptide substrate, [[…]], (20 μM) is prepared in reaction buffer (20 mM Hepes pH 7.5, 10 mM MgCl2, 1 mM EGTA, 0.02% Brij35, 0.02 mg/mL BSA, […], 2 mM DTT, 1% DMSO. TYK2 (Invitrogen) kinase is added, followed by compounds in DMSO. 33PATP is added to initiate the reaction in ATP at 10 μM. Kinase reaction is incubated for 120 min at room temp and reactions are spotted onto P81 ion exchange paper (Whatman #3698-915), and then washed extensively in 0.75% phosphoric acid, prior to reading the radioactivity counts. For JAK2 (Invitrogen) kinase assay the peptide substrate poly[Glu:Tyr](4:1), 0.2 mg/ml is used, in the reaction carried out the same as for TYK2.
The caliper machine employs an off chip mobility shift assay to detect phosphorylated peptide substrates from kinase assays, using microfluidics technology. The assays are carried out at ATP concentration equivalent to the ATP Km, and at 1 mM ATP. Compounds are serially diluted in DMSO then further diluted in assay buffer (25 mM HEPES, pH 7.5, 0.01% Brij-35, 0.01% Triton, 0.5 mM EGTA). 5 ul of diluted compound was added into wells first, then 10 ul of enzyme mix was added into wells, followed by 10 uL of substrate mix (peptide and ATP in 10 mM MgCl2) to start reaction. Reaction was incubated at 28° C. for 25 min and then added 25 ul stop buffer (100 mM HEPES, 0.015% Brij-35, 50 mM EDTA), followed by reading with Caliper. JAK2 at 1 nM final concentration and TYK2 at 9.75 nM are from Carna, and substrates used are ATP at 20 and 16 uM, respectively. JAK2 assay uses peptide 22 and TYK2 uses peptide 30 (Caliper), each at 3 uM.

A value given as a limit tells only on which side of the number the result lay.

Chain of JAK2 (O60674 whole entry): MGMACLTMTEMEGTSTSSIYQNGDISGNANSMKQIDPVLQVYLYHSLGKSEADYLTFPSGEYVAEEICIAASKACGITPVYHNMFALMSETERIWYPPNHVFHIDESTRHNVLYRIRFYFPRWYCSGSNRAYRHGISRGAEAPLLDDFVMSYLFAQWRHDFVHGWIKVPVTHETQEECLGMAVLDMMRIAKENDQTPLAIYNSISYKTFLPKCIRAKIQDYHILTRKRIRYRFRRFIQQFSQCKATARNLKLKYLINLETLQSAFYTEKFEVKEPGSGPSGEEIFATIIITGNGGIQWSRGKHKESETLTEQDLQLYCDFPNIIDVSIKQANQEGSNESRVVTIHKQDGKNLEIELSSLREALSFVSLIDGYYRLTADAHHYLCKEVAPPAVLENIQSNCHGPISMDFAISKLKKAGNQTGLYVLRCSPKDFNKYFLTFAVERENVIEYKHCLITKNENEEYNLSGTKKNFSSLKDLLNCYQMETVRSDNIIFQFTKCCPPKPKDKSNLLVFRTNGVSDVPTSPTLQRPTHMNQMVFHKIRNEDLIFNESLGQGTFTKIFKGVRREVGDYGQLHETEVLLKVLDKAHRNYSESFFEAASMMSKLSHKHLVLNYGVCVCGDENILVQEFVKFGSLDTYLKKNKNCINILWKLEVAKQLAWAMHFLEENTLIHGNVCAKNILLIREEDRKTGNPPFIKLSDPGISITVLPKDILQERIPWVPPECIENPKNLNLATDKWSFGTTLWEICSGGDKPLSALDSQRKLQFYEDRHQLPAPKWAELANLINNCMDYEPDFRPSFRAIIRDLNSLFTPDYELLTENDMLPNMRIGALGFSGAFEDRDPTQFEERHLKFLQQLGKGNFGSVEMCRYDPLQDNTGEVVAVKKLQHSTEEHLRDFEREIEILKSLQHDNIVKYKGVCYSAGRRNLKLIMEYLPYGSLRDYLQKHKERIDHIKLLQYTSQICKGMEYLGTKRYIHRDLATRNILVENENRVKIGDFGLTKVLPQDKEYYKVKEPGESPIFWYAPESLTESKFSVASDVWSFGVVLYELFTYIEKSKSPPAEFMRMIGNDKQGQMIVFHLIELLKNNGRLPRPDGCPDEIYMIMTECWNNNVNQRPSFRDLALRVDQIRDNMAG
Chain of TYK2 (P29597 whole entry): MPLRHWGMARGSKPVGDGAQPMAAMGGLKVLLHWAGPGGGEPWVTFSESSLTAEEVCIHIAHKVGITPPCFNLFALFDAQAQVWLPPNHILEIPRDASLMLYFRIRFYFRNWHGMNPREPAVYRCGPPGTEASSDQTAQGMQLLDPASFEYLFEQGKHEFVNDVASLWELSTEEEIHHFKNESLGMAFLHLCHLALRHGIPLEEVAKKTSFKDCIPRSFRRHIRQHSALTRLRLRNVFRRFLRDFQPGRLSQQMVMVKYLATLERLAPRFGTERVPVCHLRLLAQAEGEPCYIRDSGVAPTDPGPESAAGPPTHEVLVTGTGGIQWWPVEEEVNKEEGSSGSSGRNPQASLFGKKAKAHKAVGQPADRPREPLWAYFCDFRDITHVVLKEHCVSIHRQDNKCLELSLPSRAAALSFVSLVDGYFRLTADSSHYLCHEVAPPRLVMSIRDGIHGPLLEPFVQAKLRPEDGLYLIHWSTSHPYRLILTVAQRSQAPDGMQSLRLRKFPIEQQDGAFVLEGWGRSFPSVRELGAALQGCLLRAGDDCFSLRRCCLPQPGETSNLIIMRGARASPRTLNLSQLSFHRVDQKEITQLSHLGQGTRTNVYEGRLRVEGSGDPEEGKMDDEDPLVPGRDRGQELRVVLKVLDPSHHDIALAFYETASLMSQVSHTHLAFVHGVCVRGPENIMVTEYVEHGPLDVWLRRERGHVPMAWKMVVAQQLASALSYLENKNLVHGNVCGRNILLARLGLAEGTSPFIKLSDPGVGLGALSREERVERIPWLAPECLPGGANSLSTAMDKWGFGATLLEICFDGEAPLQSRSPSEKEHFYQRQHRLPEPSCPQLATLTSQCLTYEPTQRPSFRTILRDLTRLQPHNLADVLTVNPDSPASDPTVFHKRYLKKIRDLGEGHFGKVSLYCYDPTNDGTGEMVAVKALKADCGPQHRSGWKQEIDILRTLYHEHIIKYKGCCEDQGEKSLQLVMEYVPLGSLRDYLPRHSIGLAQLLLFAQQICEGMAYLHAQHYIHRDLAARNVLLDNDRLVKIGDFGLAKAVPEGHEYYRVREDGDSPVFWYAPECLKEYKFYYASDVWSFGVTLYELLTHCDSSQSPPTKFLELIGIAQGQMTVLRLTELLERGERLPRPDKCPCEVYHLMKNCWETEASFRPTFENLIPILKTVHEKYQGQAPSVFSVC

One may read the Ki as a measure of affinity in units of concentration, obtained from inhibition or displacement. `CCOC(=O)Cc1ccc(Nc2nc(-c3ccccc3Cl)nc3c2C(=O)NC3)cc1` [Compound I-1, Ethyl 2-(4-((2-(2-chlorophenyl)-5-oxo-6,7-dihydro-5H-pyrrolo[3,4-d]pyrimidin-4-yl)amino)phenyl)acetate]: the Ki at JAK2 was 100 to 1000 nM; at TYK2 it was below 10 nM.

For the compound `O=C(O)Cc1ccc(Nc2nc(-c3c(F)cccc3F)nc3c2C(=O)NC3)cc1` [Compound I-2, 2-(4-((2-(2,6-difluorophenyl)-5-oxo-6,7-dihydro-5H-pyrrolo[3,4-d]pyrimidin-4-yl)amino)phenyl)acetic Acid], the inhibition constant Ki at JAK2 was above 1000 nM; at TYK2 it was below 10 nM.

Take `CCOC(=O)Cc1ccc(Nc2nc(-c3c(F)cccc3F)nc3c2C(=O)NC3)cc1` [Compound I-3, ethyl 2-(4-((2-(2,6-difluorophenyl)-5-oxo-6,7-dihydro-5H-pyrrolo[3,4-d]pyrimidin-4-yl)amino)phenyl)acetate]: the figures for the inhibition constant (Ki) at JAK2 and at TYK2 were 100 to 1000 nM and below 10 nM, respectively.

Consider `CCOC(=O)Cc1ccc(Nc2nc(-c3c(F)cccc3Cl)nc3c2C(=O)NC3)cc1` [Compound I-4, ethyl 2-(4-((2-(2-chloro-6-fluorophenyl)-5-oxo-6,7-dihydro-5H-pyrrolo[3,4-d]pyrimidin-4-yl)amino)phenyl)acetate], for which the inhibition constant Ki at JAK2 was 100 to 1000 nM; on TYK2 it was below 10 nM.

In the case of `CCOC(=O)Cc1ccc(Nc2nc(-c3c(Cl)cccc3Cl)nc3c2C(=O)NC3)cc1` [Compound I-5, ethyl 2-(4-((2-(2,6-dichlorophenyl)-5-oxo-6,7-dihydro-5H-pyrrolo[3,4-d]pyrimidin-4-yl)amino)phenyl)acetate], the values for the Ki at JAK2 and on TYK2 were 100 to 1000 nM and below 10 nM, respectively.

For `O=C(O)Cc1ccc(Nc2nc(-c3c(Cl)cccc3Cl)nc3c2C(=O)NC3)cc1` [Compound I-6, 2-(4-((2-(2,6-dichlorophenyl)-5-oxo-6,7-dihydro-5H-pyrrolo[3,4-d]pyrimidin-4-yl)amino)phenyl)acetic Acid], the inhibition constant Ki at JAK2 was 100 to 1000 nM; on TYK2, below 10 nM.

As for `O=C(O)Cc1ccc(Nc2nc(-c3ccccc3Cl)nc3c2C(=O)NC3)cc1` [Compound I-7, 2-(4-((2-(2-chlorophenyl)-5-oxo-6,7-dihydro-5H-pyrrolo[3,4-d]pyrimidin-4-yl)amino)phenyl)acetic Acid], the Ki at JAK2 is above 1000 nM; on TYK2, 10 to 100 nM.

For the compound `NC(=O)Cc1ccc(Nc2nc(-c3ccccc3Cl)nc3c2C(=O)NC3)cc1` [Compound I-8, 2-(4-((2-(2-chlorophenyl)-5-oxo-6,7-dihydro-5H-pyrrolo[3,4-d]pyrimidin-4-yl)amino)phenyl)acetamide], the Ki is above 1000 nM on JAK2 and 10 to 100 nM at TYK2.

In the case of `N#Cc1cc(Cl)c(-c2nc3c(c(Nc4ccc(CC(=O)O)cc4)n2)C(=O)NC3)c(Cl)c1` [Compound I-9, 2-(4-((2-(2,6-dichloro-4-cyanophenyl)-5-oxo-6,7-dihydro-5H-pyrrolo[3,4-d]pyrimidin-4-yl)amino)phenyl)acetic Acid], the inhibition constant Ki at JAK2 was 100 to 1000 nM; at TYK2, below 10 nM.

On to `O=C(O)Cc1ccc(Nc2nc(-c3c(F)cccc3Cl)nc3c2C(=O)NC3)cc1` [Compound I-10, 2-(4-((2-(2-chloro-6-fluorophenyl)-5-oxo-6,7-dihydro-5H-pyrrolo[3,4-d]pyrimidin-4-yl)amino)phenyl)acetic Acid], for which the Ki at JAK2 was 100 to 1000 nM; on TYK2, below 10 nM.

For `O=C(Cc1ccc(Nc2nc(-c3c(F)cccc3F)nc3c2C(=O)NC3)cc1)NC1CCNCC1` [Compound I-11, 2-(4-((2-(2,6-difluorophenyl)-5-oxo-6,7-dihydro-5H-pyrrolo[3,4-d]pyrimidin-4-yl)amino)phenyl)-N-(piperidin-4-yl)acetamide], the figures for the inhibition constant Ki on JAK2 and at TYK2 were 100 to 1000 nM and below 10 nM, respectively.

For `O=C(Cc1ccc(Nc2nc(-c3c(F)cccc3F)nc3c2C(=O)NC3)cc1)NCC1CCNCC1` [Compound I-13, 2-(4-((2-(2,6-difluorophenyl)-5-oxo-6,7-dihydro-5H-pyrrolo[3,4-d]pyrimidin-4-yl)amino)phenyl)-N-(piperidin-4-ylmethyl)acetamide], the Ki at JAK2 was 100 to 1000 nM; at TYK2, below 10 nM.

Turning to `O=C(Cc1ccc(Nc2nc(-c3c(F)cccc3F)nc3c2C(=O)NC3)cc1)NC1CC2(CNC2)C1` [Compound I-14, 2-(4-((2-(2,6-difluorophenyl)-5-oxo-6,7-dihydro-5H-pyrrolo[3,4-d]pyrimidin-4-yl)amino)phenyl)-N-(2-azaspiro[3.3]heptan-6-yl)acetamide], the inhibition constant Ki at JAK2 is 100 to 1000 nM; at TYK2, below 10 nM.

`O=C1NCc2nc(-c3c(F)cccc3F)nc(Nc3ccc(CC(=O)N4CCC[C@@H]4CO)cc3)c21` [Compound I-15, (R)-2-(2,6-difluorophenyl)-4-((4-(2-(2-(hydroxymethyl)pyrrolidin-1-yl)-2-oxoethyl)phenyl)amino)-6,7-dihydro-5H-pyrrolo[3,4-d]pyrimidin-5-one]: the figures for the inhibition constant Ki at JAK2 and on TYK2 were 100 to 1000 nM and below 10 nM, respectively.

In the case of `O=C(O)Cc1ccc(Nc2nc(-c3c(F)cccc3F)nc3c2C(=O)NC3)cn1` [Compound I-17], the Ki at JAK2 is above 1000 nM; on TYK2, 100 to 1000 nM.

Take `COC(=O)Cc1ccc(Nc2nc(-c3c(F)cccc3F)nc3c2C(=O)NC3)cn1` [Compound I-18, methyl 2-(5-((2-(2,6-difluorophenyl)-5-oxo-6,7-dihydro-5H-pyrrolo[3,4-d]pyrimidin-4-yl)amino)pyridin-2-yl)acetate]: the inhibitory constant (Ki) was above 1000 nM at JAK2 and 100 to 1000 nM on TYK2.

On to `O=C(Cc1ccc(Nc2nc(-c3c(F)cccc3F)nc3c2C(=O)NC3)cn1)NC1CCNCC1` [Compound I-19, 2-(5-((2-(2,6-difluorophenyl)-5-oxo-6,7-dihydro-5H-pyrrolo[3,4-d]pyrimidin-4-yl)amino)pyridin-2-yl)-N-(piperidin-4-yl)acetamide], for which the Ki at JAK2 is above 1000 nM; on TYK2 it was 100 to 1000 nM.

On to `CN(C(=O)Cc1ccc(Nc2nc(-c3c(F)cccc3F)nc3c2C(=O)NC3)cc1)C1CCNCC1` [Compound I-22, 2-(4-((2-(2,6-difluorophenyl)-5-oxo-6,7-dihydro-5H-pyrrolo[3,4-d]pyrimidin-4-yl)amino)phenyl)-N-methyl-N-(piperidin-4-yl)acetamide], for which the inhibition constant Ki was 10 to 100 nM at JAK2 and below 10 nM on TYK2.

`CCNC(=O)Cc1ccc(Nc2nc(-c3c(F)cccc3F)nc3c2C(=O)NC3)cn1` [Compound I-23, 2-(5-((2-(2,6-difluorophenyl)-5-oxo-6,7-dihydro-5H-pyrrolo[3,4-d]pyrimidin-4-yl)amino)pyridin-2-yl)-N-ethylacetamide]: the Ki at JAK2 was above 1000 nM; on TYK2, 10 to 100 nM.

Turning to `COC(=O)Cc1ncc(Nc2nc(-c3c(F)cccc3F)nc3c2C(=O)NC3)cn1` [Compound I-166, methyl 2-(5-((2-(2,6-difluorophenyl)-5-oxo-6,7-dihydro-5H-pyrrolo[3,4-d]pyrimidin-4-yl)amino)pyrimidin-2-yl)acetate], the Ki on TYK2 lay in the range of 100 to 1000 nM.

With `O=C1NCc2nc(-c3c(F)cccc3F)nc(Nc3ccc(OC(F)(F)F)cc3)c21` [Compound I-184, 2-(2,6-difluorophenyl)-4-((4-(trifluoro-methoxy)phenyl)amino)-6,7-dihydro-5H-pyrrolo[3,4-d]pyrimidin-5-one], the Ki at TYK2 was 10 to 100 nM.

In the case of `O=C1NCc2nc(-c3c(F)cccc3F)nc(Nc3ccc(C4CCCCC4)cc3)c21` [Compound I-197, 4-((4-cyclohexylphenyl)amino)-2-(2,6-difluorophenyl)-6,7-dihydro-5H-pyrrolo[3,4-d]pyrimidin-5-one], on TYK2, the Ki lay in the range of 100 to 1000 nM.

Take `O=C1NCc2nc(-c3c(F)cccc3F)nc(Nc3ccc(S(=O)(=O)C(F)(F)F)cc3)c21` [Compound I-236, 2-(2,6-difluorophenyl)-4-((4-((trifluoromethyl)sulfonyl)phenyl)-amino)-6,7-dihydro-5H-pyrrolo[3,4-d]pyrimidin-5-one]: on TYK2, the inhibitory constant (Ki) lay in the range of 10 to 100 nM.

With `COc1ccc(Nc2cc(-c3c(F)cccc3F)nc3c2C(=O)N[C@H]3C)nc1` [Compound I-241, (S)-2-(2,6-difluorophenyl)-4-((5-methoxypyridin-2-yl)amino)-7-methyl-6,7-dihydro-5H-pyrrolo[3,4-b]pyridin-5-one], the inhibitory constant (Ki) on TYK2 was 100 to 1000 nM.

Take `Cc1ccc(Nc2nc(-c3c(F)cccc3F)nc3c2C(=O)NC3)cc1F` [Compound I-292, 2-(2,6-difluorophenyl)-4-((3-fluoro-4-methylphenyl)amino)-6,7-dihydro-5H-pyrrolo[3,4-d]pyrimidin-5-one]: the Ki on TYK2 lay in the range of 10 to 100 nM.

(Values after patent US10196390B2, “TYK2 inhibitors and uses thereof” (Nimbus Lakshmi, Inc., priority 2014, dated 2019).)
